Test results: ChEMBL document CHEMBL5303304, “EUbOPEN Chemogenomics Library - IncuCyte” (2023)

What was measured:
Format in all cases: toxicity, cell-based
Fibroblast = assay: Incucyte cell viability with human fibroblast; settings: 10 µM, compound concentration 10 uM
U2OS = assay: Incucyte cell viability with U2OS; settings: human, 10 µM, compound concentration 10 uM
HEK-293T = assay: Incucyte cell viability with HEK293T; settings: human, 10 µM, compound concentration 10 uM
Further: unitless GR value; below 1 slowed growth and below 0 cell loss.

N[C@@H](Cn1cc(F)c(=O)[nH]c1=O)C(=O)O
Growth Rate (Fibroblast; 12 h, replicate number 1): -0.98
Growth Rate (Fibroblast; 18 h, replicate number 1): 0.16
Growth Rate (Fibroblast; 18 h, replicate number 2): 0.82
Growth Rate (Fibroblast; 24 h, replicate number 1): 0.97
Growth Rate (Fibroblast; 24 h, replicate number 2): 0.99
Growth Rate (U2OS; 0 h, replicate number 1): 0.45
Growth Rate (U2OS; 6 h, replicate number 2): 0.7
Growth Rate (U2OS; 12 h, replicate number 2): 0.81
Growth Rate (U2OS; 18 h, replicate number 2): 0.8
Growth Rate (U2OS; 24 h, replicate number 2): 0.83
Growth Rate (HEK-293T; 0 h, replicate number 1): 0.81
Growth Rate (HEK-293T; 6 h, replicate number 1): 0.82
Growth Rate (HEK-293T; 6 h, replicate number 2): 0.86
Growth Rate (HEK-293T; 12 h, replicate number 1): 0.99
Growth Rate (HEK-293T; 24 h, replicate number 2): 0.96

CN1CC[C@@]23CCCC[C@@H]2[C@@H]1Cc1ccc(O)cc13.O=C(O)C(O)C(O)C(=O)O
Growth Rate (Fibroblast; 0 h, replicate number 1): 0.67
Growth Rate (Fibroblast; 6 h, replicate number 2): -0.93
Growth Rate (Fibroblast; 12 h, replicate number 1): -0.94
Growth Rate (Fibroblast; 12 h, replicate number 2): -0.3
Growth Rate (Fibroblast; 18 h, replicate number 1): 0.72
Growth Rate (Fibroblast; 18 h, replicate number 2): 0.13
Growth Rate (Fibroblast; 24 h, replicate number 2): 0.19
Growth Rate (U2OS; 0 h, replicate number 2): -0.41
Growth Rate (HEK-293T; 0 h, replicate number 1): 0.54
Growth Rate (HEK-293T; 0 h, replicate number 2): 0.37

COc1cc(/C=C(\C#N)C(=O)Nc2nnc(C(F)(F)F)s2)ccc1OCc1ccc(C(F)(F)F)cc1C(F)(F)F
Growth Rate (Fibroblast; 0 h, replicate number 1): -0.12
Growth Rate (Fibroblast; 12 h, replicate number 1): -0.69
Growth Rate (Fibroblast; 12 h, replicate number 2): 0.17
Growth Rate (Fibroblast; 18 h, replicate number 1): 0.9
Growth Rate (Fibroblast; 18 h, replicate number 2): 0.84
Growth Rate (Fibroblast; 24 h, replicate number 1): 0.17
Growth Rate (Fibroblast; 24 h, replicate number 2): 0.86
Growth Rate (U2OS; 0 h, replicate number 1): 0.49
Growth Rate (U2OS; 6 h, replicate number 1): 0.84
Growth Rate (U2OS; 6 h, replicate number 2): 0.63
Growth Rate (U2OS; 12 h, replicate number 2): 0.81
Growth Rate (U2OS; 18 h, replicate number 2): 0.85
Growth Rate (U2OS; 24 h, replicate number 1): 0.97
Growth Rate (U2OS; 24 h, replicate number 2): 0.87
Growth Rate (HEK-293T; 0 h, replicate number 1): 0.87
Growth Rate (HEK-293T; 6 h, replicate number 1): 0.32
Growth Rate (HEK-293T; 6 h, replicate number 2): 0.92
Growth Rate (HEK-293T; 12 h, replicate number 1): 0.72
Growth Rate (HEK-293T; 12 h, replicate number 2): 0.82
Growth Rate (HEK-293T; 18 h, replicate number 1): 0.91
Growth Rate (HEK-293T; 24 h, replicate number 1): 1
Growth Rate (HEK-293T; 24 h, replicate number 2): 0.98

CC(C)c1ccc(/C=N/NC(=O)c2ccc(O)cc2)cc1
Growth Rate (Fibroblast; 6 h, replicate number 1): -0.99
Growth Rate (Fibroblast; 6 h, replicate number 2): 0.53
Growth Rate (Fibroblast; 12 h, replicate number 2): 0.42
Growth Rate (Fibroblast; 18 h, replicate number 2): 0.57
Growth Rate (Fibroblast; 24 h, replicate number 2): 0.46
Growth Rate (U2OS; 0 h, replicate number 1): -0.47
Growth Rate (U2OS; 0 h, replicate number 2): -0.95
Growth Rate (U2OS; 24 h, replicate number 2): 0.98
Growth Rate (HEK-293T; 0 h, replicate number 1): 0.78
Growth Rate (HEK-293T; 6 h, replicate number 1): 0.39
Growth Rate (HEK-293T; 6 h, replicate number 2): 0.04
Growth Rate (HEK-293T; 12 h, replicate number 1): 0.85
Growth Rate (HEK-293T; 12 h, replicate number 2): 0.36
Growth Rate (HEK-293T; 18 h, replicate number 1): 0.85
Growth Rate (HEK-293T; 18 h, replicate number 2): 0.58
Growth Rate (HEK-293T; 24 h, replicate number 1): 0.81
Growth Rate (HEK-293T; 24 h, replicate number 2): 0.63

Cc1[nH]nc2ccc(-c3cncc(OCC(N)Cc4c[nH]c5ccccc45)c3)cc12 (centres undefined)
Growth Rate (Fibroblast; 6 h, replicate number 1): -1
Growth Rate (Fibroblast; 18 h, replicate number 2): 0.88
Growth Rate (Fibroblast; 24 h, replicate number 2): 0.21
Growth Rate (U2OS; 0 h, replicate number 2): 0.54
Growth Rate (U2OS; 18 h, replicate number 1): 0.51
Growth Rate (U2OS; 24 h, replicate number 1): 0.09
Growth Rate (U2OS; 24 h, replicate number 2): 0.13
Growth Rate (HEK-293T; 0 h, replicate number 1): -0.53
Growth Rate (HEK-293T; 0 h, replicate number 2): -0.56
Growth Rate (HEK-293T; 12 h, replicate number 2): 0.41
Growth Rate (HEK-293T; 18 h, replicate number 1): 0.65
Growth Rate (HEK-293T; 18 h, replicate number 2): 0.08
Growth Rate (HEK-293T; 24 h, replicate number 1): 0.19
Growth Rate (HEK-293T; 24 h, replicate number 2): -0.02

Cc1[nH]nc2ccc(-c3cncc(OCC(N)Cc4ccccc4)c3)cc12 (centres undefined)
Growth Rate (Fibroblast; 0 h, replicate number 2): -0.26
Growth Rate (Fibroblast; 6 h, replicate number 1): -1
Growth Rate (Fibroblast; 24 h, replicate number 2): 0.73
Growth Rate (U2OS; 18 h, replicate number 2): 0.7
Growth Rate (U2OS; 24 h, replicate number 1): 0.35
Growth Rate (U2OS; 24 h, replicate number 2): 0.28
Growth Rate (HEK-293T; 0 h, replicate number 1): -0.76
Growth Rate (HEK-293T; 0 h, replicate number 2): -0.85
Growth Rate (HEK-293T; 18 h, replicate number 2): 0.44
Growth Rate (HEK-293T; 24 h, replicate number 1): 0.9
Growth Rate (HEK-293T; 24 h, replicate number 2): 0.21

CCn1c(-c2ccncc2)cc2c1CCNC2=O
Growth Rate (Fibroblast; 0 h, replicate number 1): -0.22
Growth Rate (Fibroblast; 6 h, replicate number 1): -0.99
Growth Rate (U2OS; 0 h, replicate number 1): -0.56
Growth Rate (U2OS; 0 h, replicate number 2): 0.39
Growth Rate (U2OS; 12 h, replicate number 1): 0.78
Growth Rate (U2OS; 12 h, replicate number 2): 0.44
Growth Rate (U2OS; 18 h, replicate number 1): 0.29
Growth Rate (U2OS; 18 h, replicate number 2): 0.12
Growth Rate (U2OS; 24 h, replicate number 1): 0.13
Growth Rate (U2OS; 24 h, replicate number 2): 0.08
Growth Rate (HEK-293T; 0 h, replicate number 1): -0.57
Growth Rate (HEK-293T; 0 h, replicate number 2): -0.66
Growth Rate (HEK-293T; 6 h, replicate number 1): 0.22
Growth Rate (HEK-293T; 6 h, replicate number 2): -0.3
Growth Rate (HEK-293T; 12 h, replicate number 1): -0.65
Growth Rate (HEK-293T; 12 h, replicate number 2): -0.55
Growth Rate (HEK-293T; 18 h, replicate number 1): -0.57
Growth Rate (HEK-293T; 18 h, replicate number 2): -0.47
Growth Rate (HEK-293T; 24 h, replicate number 1): -0.56
Growth Rate (HEK-293T; 24 h, replicate number 2): -0.39

Nc1ccc(-c2cnc(N)c(-c3ccc(Cl)cc3)c2)cn1
Growth Rate (Fibroblast; 0 h, replicate number 1): 0.71
Growth Rate (Fibroblast; 0 h, replicate number 2): -0.5
Growth Rate (Fibroblast; 6 h, replicate number 1): -1
Growth Rate (U2OS; 0 h, replicate number 1): -0.24
Growth Rate (U2OS; 0 h, replicate number 2): -0.83
Growth Rate (HEK-293T; 0 h, replicate number 1): -0.26
Growth Rate (HEK-293T; 0 h, replicate number 2): -0.3
Growth Rate (HEK-293T; 18 h, replicate number 2): 0.92
Growth Rate (HEK-293T; 24 h, replicate number 2): 0.78

CC1(C)OC(=O)c2ccc(Nc3ncc(-c4nnco4)c(N[C@H](CO)c4ccccc4)n3)cc21
Growth Rate (Fibroblast; 0 h, replicate number 2): -0.49
Growth Rate (Fibroblast; 6 h, replicate number 1): -1
Growth Rate (U2OS; 0 h, replicate number 2): -0.4
Growth Rate (U2OS; 12 h, replicate number 1): 0.78
Growth Rate (U2OS; 18 h, replicate number 1): 0.44
Growth Rate (U2OS; 18 h, replicate number 2): 0.69
Growth Rate (U2OS; 24 h, replicate number 1): 0.47
Growth Rate (U2OS; 24 h, replicate number 2): 0.62
Growth Rate (HEK-293T; 0 h, replicate number 1): 0.28
Growth Rate (HEK-293T; 0 h, replicate number 2): -0.28
Growth Rate (HEK-293T; 12 h, replicate number 1): 0.23
Growth Rate (HEK-293T; 12 h, replicate number 2): -0.01
Growth Rate (HEK-293T; 18 h, replicate number 1): 0.12
Growth Rate (HEK-293T; 18 h, replicate number 2): -0.01
Growth Rate (HEK-293T; 24 h, replicate number 1): 0.09
Growth Rate (HEK-293T; 24 h, replicate number 2): -0.02
